In patent publication US6613352B2, “Low-rigidity liposomal formulation” (Universite de Montreal, priority 1999, dated 2003):

Tested on: Xanthomonas maltophilia
Experiment: In vitro bactericidal activity, viable bacterial counts in proteose peptone
Type: cell-based
Conditions: free tobramycin 3,12 μg/ml, entrapped tobramycin 3,08 μg/ml, MIC >5 μg/ml
Procedure: To culture tubes containing proteose peptone (29 ml) a minimal number of 10^8 CFU of bacteria in logarithmic phase (1 ml) and of one of the following preparations (100 μl) were added at time zero: free tobramycin, control liposomes or PBS. Experiments were done in triplicate. At times 1, 3, 6, and 16 hours following the addition of antibiotic or controls, 2 ml of samples were collected and serial 10-fold dilutions were made and spread in triplicate on proteose peptone agar plates for gram negative strains and on […] for S. aureus. CFU were counted after 24-hour and 48-hourS incubations at 37° C. under 5% CO2. Counts were expressed in log CFU per ml of culture media.

SMILES: NC[C@H]1O[C@H](O[C@H]2[C@H](O)[C@@H](O[C@H]3O[C@H](CO)[C@@H](O)[C@H](N)[C@H]3O)[C@H](N)C[C@@H]2N)[C@H](N)C[C@@H]1O [Free tobramycin, tobramycin]
- Viable bacterial counts (0 h): 3.7 × 10^10 cfu
- Viable bacterial counts (1 h): 3.00 × 10^12 cfu
- Viable bacterial counts (3 h): 8.20 × 10^14 cfu
- Viable bacterial counts (6 h): 7.80 × 10^16 cfu
